Article PMC8058733, “A pain killer without analgesic tolerance designed by co-targeting PSD-95-nNOS interaction and α2-containning GABAARs” (Theranostics, 2021)

Key:
[1] = Identification of metabolites of ZL006-05 in plasma (UPLC-UV/Q-TOF MS); type: in vivo; details: rats
Procedure: ZL006-05 was given to rats by intravenous injection (i.v., 6.0 mg/kg) and oral administration (i.g., 90 mg/kg) respectively. Plasma samples were collected at pre-dose and 0.25, 0.5, 2 and 4 h for i.v. and 0.5, 1, 2 and 4 h for i.g after a single dose administration. Pre-dose plasma samples were used as control blank. After vortex and centrifugation, supernatant was removed and dried out by nitrogen blowing instrument at 40 °C and then re-dissolved with 100 μL water/ACN (50/50, v/v). The resulting samples were injected and analyzed by UPLC-UV/Q-TOF MS. Metabolites were separated with ACQUITY UPLC HSS T3 C18 column (2.1 × 100 mm I.D., 1.7 µm I.D.) with column temperature at 45 °C and flow rate at 0.4 mL/min, detected by UV (200-600 nm). Masslynx V4.1 of Waters was used for data acquiring, MetaboLynx XS with Masslynx V4.1 was used for data analysis.
Supplementary Figure 3. Proposed metabolic pathways of ZL006-05 in rats. […]
of ZL006-05, including M2-2 (glucuronide conjunction), M3-2 (Mono-oxidation & […]
parent drug were found in plasma after oral administration of ZL006-05, including M1 (Oxidation by de-H2), M2-1 and M2-2 (glucuronide conjunction), M3-1 and M3-2 (Mono-oxidation & glucuronide conjunction). Based on the chromatogram of UPLC- […]
oral dosing, the proposed metabolic pathways of ZL006-05 in blood were summarized. i.v.: intravenous injection; i.g.: oral administration.
(1 picture or pasted object on this page, not shown here)

spatial memory = assay: Morris water maze task; type: in vivo; details: rats; ZL006-05 90 mg/kg/d, i.g.; MK801 0.25 mg/kg/d, i.v.; 6 days
Procedure: The Morris water maze task was used to exam spatial cognitive performance of rats. A circular swimming pool (Jiliang Neuroscience Inc.) measuring 180 cm in diameter and 48 cm in height was filled with water to a depth of 26 cm at 24 ± 2 °C. Four starting points around the edge of the pool were designated as N, E, S, and W, which divided the pool into four quadrants. A platform, 10 cm in diameter, was located in a constant position in the middle of one quadrant. To render it invisible to the rats, platform was submerged 2.0 cm below the surface of the water. The task for the rats was to escape from the water by locating the hidden platform. Two days before training, the animals were habituated to swimming for 60 s in the pool without a platform. In training session, rats were trained to escape from the water by locating the platform which was above the water with a red flag on it. Then, one block of four trails was given for 6 consecutive days, and on each day, two groups of rats were administrated with MK801 (0.25 mg/kg, i.v.) or vehicle (6 mL/kg, i.v.) 30 minutes before the first trail. Meanwhile, another two groups of rats were treated with ZL006-05 (90 mg/kg, i.g.) or vehicle (6 mL/kg, i.g.) 1 hour before the first trail. […] During retention, the number of crossings of the platform location and the time spent in the target quadrant were measured.

[2] = tested on: SNL-induced mechanical hyperalgesia; assay: SNL-induced mechanical hyperalgesia, paw withdrawal threshold; type: in vivo, rat; details: SNL rats, ZL006-05 60 mg/kg/d, i.g., ×11 d
[3] = tested on: basic pain threshold under normal conditions; assay: Mechanical nociceptive thresholds in normal rats; type: in vivo, rat; details: ZL006-05 90 mg/kg/d, i.g., × 11 d, 2 h after administration
Procedure: For rats, the threshold for 50% paw withdrawal (50% PWT) response to mechanical stimulus was assessed through a dynamic plantar apparatus (Ugo Basile, Italy). The 50% PWT refers to that the probability of paw withdrawal response to repeated mechanical stimulus is 50%. Rats were placed individually in a plastic cage (17 × 15 × 15 cm) with a wire mesh bottom which allowed full access to the paws. Behavioral accommodation was allowed for 15-20 min until cage exploration and major grooming activities ceased. A maximal cut-off of 50g/50s was set to prevent tissue damage. To record the PWT in response to mechanical stimulus, each rat was measured five times with a 5-min interval, and the mean value was recorded after excluding maximal and minimum values. The experimental procedures were performed in a double-blind manner.

## CC1(C)C2CCC1(C)C(OC(=O)c1ccc(NCc3cc(Cl)cc(Cl)c3O)cc1O)C2 (stereo not shown) [ZL006-05]
[1]; after intravenous injection: M2-2, M3-2, M4
  Metabolites found in plasma: Three metabolites except parent drug
[1]; after iv dosing, 6.0 mg/kg
  Main metabolite in plasma (UPLC-UV): parent drug (M0)
[1]; after oral administration: M1, M2-1, M2-2, M3-1, M3-2
  Metabolites found in plasma: five metabolites
[1]; after oral dosing, 90 mg/kg
  Main metabolite in plasma (UPLC-UV): parent drug (M0) and glucuronide conjunction (M2-2)
Spatial memory
  Spatial memory in the Morris water maze task: but not ZL006-05 caused significantly impaired spatial memory
[2]
  Analgesic tolerance, mechanical hyperalgesia: did not produce analgesic tolerance
[3]
  Basic mechanical nociceptive threshold: did not change the basic threshold
